Experiment [1] deals with MSSA clinical isolate No. 1. The experiment can be described thus: MIC, broth microdilution (Example 2, Table 6). The class given is cell-based, Staphylococcus aureus. On the technique in general: Broth dilution looks for growth in wells or tubes with falling amounts of substance.
In experiment [2] the test system is MRSA clinical isolate No. 11. The experiment can be described thus: MIC, broth microdilution (Example 2, Table 6). In kind it is cell-based, Staphylococcus aureus.
For experiment [3], the system named is MRSA clinical isolate No. 6. The experiment can be described thus: MIC, broth microdilution (Example 2, Table 6). In kind it is cell-based, Staphylococcus aureus.
Another experiment deals with MRSA ATCC43300. Briefly: MIC, broth microdilution (Example 2, Table 6). In kind it is cell-based, Staphylococcus aureus. Here is the method:
(§1) Methicillin-susceptible Staphylococcus aureus (MSSA) NCTC8325 and methicillin-resistant Staphylococcus aureus (MRSA) ATCC43300 were used as bacteria. The bacteria of each type were cultured using Mueller-Hinton Broth (MH-broth, Difco) as a medium. Then, the minimum inhibitory concentration (MIC) of each of the EGCG derivatives was measured by a broth microdilution method in accordance with the Clinical and Laboratory Standards Institute (CLSI) guidelines (hereinafter the same).
(§2) First, each of the EGCG derivatives was dissolved in 100% dimethyl sulfoxide (DMSO, Wako Pure Chemical Industries, Ltd.) so that the concentration thereof became 5120 μg/ml. The resultant solution was diluted with DMSO or sterile distilled water so as to prepare two-fold dilution series of antibacterial agent solutions. […] Each of these antibacterial agent solutions was dispensed to wells of a 96-well plate. The concentration of the EGCG derivative in the antibacterial agent solution dispensed to the wells was set to be 10 times as high as the final concentration. On the other hand, the bacteria were cultured in the MH-broth at 37° C. overnight, and the thus-obtained pre-culture solution was diluted with a new MH-broth so that the concentration thereof in the MH-broth became 10^−4 (10^4-fold dilution), thus preparing a bacterial culture solution of about 1×10^5 CFU/ml (CFU: Colony Forming Unit, the number of viable cells). The bacterial culture solution was further added to each well, and the mixture was cultured at 37° C. for 18 hours. The ratio (volume ratio) between the antibacterial agent solution and the bacterial culture solution added to each well was set to 1:9 (the antibacterial agent solution:the bacterial culture solution), and the volume of the mixture of them per well was set to 100 μl in total. The final concentration of the EGCG derivative in the mixture was set to 8 μg/ml to 512 μg/ml, and the number of viable cells in the mixture was set to about 1×10^5 CFU/ml. Then, after the completion of the culture, the MIC was determined. Also, the turbidity (OD600 nm) was measured using a plate reader so as to identify minor differences.
(§3) Each of the EGCG derivatives was dissolved in 100% DMSO so that the concentration thereof became 1280 μg/ml. The thus-obtained solutions were diluted with sterile distilled water, thus preparing antibacterial agent solutions.
(§4) As Comparative Example 2, the same procedures as in Example 2 were performed, except that unsubstituted EGCG was used as an antibacterial agent instead of the EGCG derivatives of Example 2. Furthermore, as a control, the same procedures as in Example 2 were performed, except that sterile distilled water was used instead of the antibacterial agent solutions containing the EGCG derivatives.

In experiment [4] the test system is S. aureus NCTC8325 (MSSA). The experiment can be described thus: MIC, broth microdilution (Example 2, Table 6). In kind it is cell-based, Staphylococcus aureus. Here is the method:
as §1, §2, §3, §4

Experiment [5] deals with Micrococcus lutus ATCC9341. The experiment can be described thus: Antibacterial spectrum MIC (Table 7). In kind it is cell-based. The protocol: as §1, §2
(§5) Regarding the respective type strains shown in Tables 7 and 8 below, the MIC measurement was performed using the antibacterial agent solutions of Example 2 in the same manner as described in Section (2) of Example 1, except for the following. The antibacterial agent solutions were prepared by dissolving the EGCG derivatives of Example 2 in 100% DMSO and then diluting the resultant mixtures with sterile distilled water. The respective strains were derived from ATCC or NCTC. As Moraxella catarrhalis and Aspergillus fumigatus, clinical isolates thereof without an acquired resistance mechanism were used. For nutrient-rich bacteria, namely, Streptococcus pneumoniae ATCC49619, Streptococcus pyogenes ATCC19615, Streptococcus agalactiae ATCC13813, Moraxella catarrhalis, and Haemophilis influenzae ATCC49766, Strepto Haemo supplement (Eiken Chemical Co., Ltd.) was added to media for culturing them. The MIC measurement with respect to fungi was carried out by a broth microdilution method using a RPMI1640/MOPS (pH 7.0) medium in accordance with CLSI guidelines. About 2×10^3 cells/ml of fungi were inoculated to the medium. After the culture at 35° C. for 24 to 48 hours, the MIC was determined. Also, regarding the antibacterial agent solution of Comparative Example 2, the MIC was measured in the same manner.

Experiment [6] relates to MRSA clinical isolate No. 12. Briefly: MIC, broth microdilution (Example 2, Table 6). The class given is cell-based, Staphylococcus aureus.
Experiment [7] has as its system MSSA clinical isolate No. 3. The experiment can be described thus: MIC, broth microdilution (Example 2, Table 6). In kind it is cell-based, Staphylococcus aureus.
The next experiment deals with MSSA ATCC29213. Briefly: MIC, broth microdilution (Example 2, Table 6). The class given is cell-based, Staphylococcus aureus.
Another experiment concerns MSSA ATCC25923. The experiment can be described thus: MIC, broth microdilution (Example 2, Table 6). The class given is cell-based, Staphylococcus aureus.
Experiment [8] relates to Candida glabrata ATCC90030. The experiment can be described thus: MIC with respect to fungi, broth microdilution (Table 8). Conditions: RPMI1640/MOPS (pH 7.0), 35° C., 24 to 48 hours. The class given is cell-based. The protocol:
as §5

For experiment [9], the system named is Candida albicans ATCC24433. The experiment is described as above. The class given is cell-based. Conditions: RPMI1640/MOPS (pH 7.0), 35° C., 24 to 48 hours. The protocol: as §5
The test system of experiment [10] is Candida tropicalis ATCC750. The experiment is described as above. In kind it is cell-based. To be noted: RPMI1640/MOPS (pH 7.0), 35° C., 24 to 48 hours. The protocol: as §5
The test system of the next experiment is Aspergillus fumigatus. Described as above. The class given is cell-based. Conditions: Aspergillus fumigatus clinical isolate; RPMI1640/MOPS (pH 7.0), 35° C., 24 to 48 hours. Here is the method: as §5
Experiment [11] relates to Candida parapsilosis ATCC22019. The description is as above. To be noted: RPMI1640/MOPS (pH 7.0), 35° C., 24 to 48 hours. In kind it is cell-based. Here is the method: as §5
In the next experiment the test system is Candida krusei ATCC6258. Described as above. In kind it is cell-based. Conditions: RPMI1640/MOPS (pH 7.0), 35° C., 24 to 48 hours. The protocol: as §5
Experiment [12] relates to Cryptococcus neoformans ATCC90112. The description is as above. Conditions: RPMI1640/MOPS (pH 7.0), 35° C., 24 to 48 hours. The class given is cell-based. The protocol: as §5
Experiment [13] relates to MRSA clinical isolate No. 7. Briefly: MIC, broth microdilution (Example 2, Table 6). The class given is cell-based, Staphylococcus aureus.
Experiment [14] concerns MSSA clinical isolate No. 5. The experiment can be described thus: MIC, broth microdilution (Example 2, Table 6). In kind it is cell-based, Staphylococcus aureus.
Experiment [15] concerns MRSA clinical isolate No. 10. Briefly: MIC, broth microdilution (Example 2, Table 6). In kind it is cell-based, Staphylococcus aureus.
The test system of experiment [16] is MSSA clinical isolate No. 4. The experiment can be described thus: MIC, broth microdilution (Example 2, Table 6). In kind it is cell-based, Staphylococcus aureus.
Experiment [17] concerns MRSA clinical isolate No. 9. Briefly: MIC, broth microdilution (Example 2, Table 6). In kind it is cell-based, Staphylococcus aureus.

Values after ≈ are worked out from the molar mass of the structure shown.

As usually defined, the MIC is the smallest concentration in the dilution series that meets the test's criterion for growth inhibition. `O=C(O[C@@H]1Cc2c(O)cc(O)cc2O[C@@H]1c1cc(O)c(O)c(O)c1)c1cc(O)c(O)c(O)c1` [EGCG, Epigallocatechin gallate, reference compound]: the MIC was more than 128 µg/mL in experiment [1]; more than 128 µg/mL in experiment [2]; more than 128 µg/mL in experiment [3]; more than 128 µg/mL with MRSA ATCC43300; 128 µg/mL (≈ 279 µM) in experiment [4]; 128 µg/mL (≈ 279 µM) in [5]. Besides, the MIC is more than 128 µg/mL in [6]; more than 128 µg/mL in experiment [7]; more than 128 µg/mL with MSSA ATCC29213; more than 128 µg/mL against MSSA ATCC25923; 32 µg/mL (≈ 69.8 µM) in experiment [8]; 64 µg/mL (≈ 140 µM) in [9]. For the same compound, the MIC in [10] is 64 µg/mL (≈ 140 µM); with Aspergillus fumigatus it was 64 µg/mL (≈ 140 µM); in [11], 64 µg/mL (≈ 140 µM); against Candida krusei ATCC6258, 64 µg/mL (≈ 140 µM); in [12], 64 µg/mL (≈ 140 µM); in [13], more than 128 µg/mL. Also, the minimal inhibitory concentration (MIC) in experiment [14] was 128 µg/mL (≈ 279 µM); in experiment [15], more than 128 µg/mL; in [16], more than 128 µg/mL; in [17], more than 128 µg/mL.
On to EGCG-dioctanoate [EGCG-C8×2], for which the MIC is 16 µg/mL in experiment [1]; 32 µg/mL in [2]; 16 µg/mL in [3]; 16 µg/mL in the experiment with MRSA ATCC43300; 4 µg/mL in [4]; 64 µg/mL in [5]. The MIC in experiment [6] was 16 µg/mL; in [7], 16 µg/mL; against MSSA ATCC29213, 16 µg/mL; in the experiment with MSSA ATCC25923 it was 16 µg/mL; in experiment [8] it was 16 µg/mL; in experiment [9] it was 32 µg/mL. The MIC in [10] was determined as 32 µg/mL; with Aspergillus fumigatus, 32 µg/mL; in experiment [11], 16 µg/mL; in the experiment with Candida krusei ATCC6258, 16 µg/mL; in [12], 16 µg/mL; in [13], 16 µg/mL. For the same compound, the minimum inhibitory concentration (MIC) in experiment [14], in experiment [15], in [16] and in experiment [17] was 16 µg/mL in each case.
In the case of EGCG-linolate [EGCG-C18DE], the MIC came out at 16 µg/mL in experiment [1]; 32 µg/mL in experiment [2]; 32 µg/mL in experiment [3]; 16 µg/mL in the experiment on MRSA ATCC43300; 16 µg/mL in [4]; 64 µg/mL in [5]. Further, the MIC was 16 µg/mL in experiment [6]; 16 µg/mL in [7]; 16 µg/mL with MSSA ATCC29213; 32 µg/mL against MSSA ATCC25923; 16 µg/mL in experiment [9]; 32 µg/mL in experiment [10]. Moreover, the MIC came to 32 µg/mL with Aspergillus fumigatus; 16 µg/mL in [11]; 16 µg/mL against Candida krusei ATCC6258; 8 µg/mL in [12]; 16 µg/mL in [13]; 16 µg/mL in [14]. Besides, the values for the MIC in [15], in experiment [16] and in experiment [17] were 16 µg/mL, 16 µg/mL and 64 µg/mL, respectively.
Regarding EGCG-stearate [EGCG-C18], the MIC in experiment [1] amounted to 32 µg/mL; in experiment [2] it was 64 µg/mL; in experiment [3] it was 32 µg/mL; in the experiment on MRSA ATCC43300, 32 µg/mL; in [4], 16 µg/mL; in [5], 64 µg/mL. The MIC in experiment [6] stood at 64 µg/mL; in experiment [7], 32 µg/mL; in the experiment on MSSA ATCC29213, 32 µg/mL; with MSSA ATCC25923, 32 µg/mL; in [8], 16 µg/mL; in experiment [9], 16 µg/mL. Besides, the MIC in experiment [10] was determined as 32 µg/mL; against Aspergillus fumigatus, 32 µg/mL; in experiment [11], 16 µg/mL; in the experiment on Candida krusei ATCC6258 it was 16 µg/mL; in experiment [12] it was 16 µg/mL; in experiment [13] it was 32 µg/mL. Further, the MIC in experiment [14], in experiment [15] and in [16] was 32 µg/mL throughout.
As to EGCG-α-linoleate [EGCG-C18TE], the MIC worked out at 16 µg/mL in experiment [1]; 64 µg/mL in [2]; 16 µg/mL in experiment [3]; 16 µg/mL against MRSA ATCC43300; 4 µg/mL in [4]; 64 µg/mL in [5]. For the same compound, the MIC turned out to be 16 µg/mL in experiment [6]; 16 µg/mL in [7]; 16 µg/mL with MSSA ATCC29213; 32 µg/mL against MSSA ATCC25923; 16 µg/mL in experiment [9]; 16 µg/mL in [10]. In addition, the minimal inhibitory concentration (MIC) with Aspergillus fumigatus is 16 µg/mL; in [11] it was 16 µg/mL; against Candida krusei ATCC6258, 16 µg/mL; in [12], 8 µg/mL; in experiment [13], 16 µg/mL; in [14], 16 µg/mL. In addition, the MIC is 16 µg/mL in experiment [15], 16 µg/mL in [16] and 64 µg/mL in [17].
